The values that follow come from patent US9708293B2, “N-(pyridin-2-yl)pyrimidin-4-amine derivatives containing a sulfone group” (BAYER PHARMA AKTIENGESELLSCHAFT, priority 2012, dated 2017).

One assay addresses T1, CDK9/CycT1 (Homo sapiens, UniProt P50750).
T1 construct: Recombinant full-length His-tagged human CDK9 and CycT1; His; purchased Invitrogen PV4131; host or cells: insect cells
The experiment in a line: CDK9/CycT1 high ATP kinase assay (Method 1b). It is filed as biochemical. The note with it: 2 mM ATP. How it is done:
1b. CDK9/CycT1 High ATP Kinase Assay
CDK9/CycT1-inhibitory activity of compounds of the present invention at a high ATP concentration after preincubation of enzyme and test compounds was quantified employing the CDK9/CycT1 TR-FRET assay as described in the following paragraphs.
Recombinant full-length His-tagged human CDK9 and CycT1, expressed in insect cells and purified by Ni-NTA affinity chromatography, were purchase from Invitrogen (Cat. No PV4131). As substrate for the kinase reaction biotinylated peptide biotin-Ttds-YISPLKSPYKISEG (C-terminus in amid form) was used which can be purchased e.g. form the company JERINI peptide technologies (Berlin, Germany). For the assay 50 n1 of a 100 fold concentrated solution of the test compound in DMSO was pipetted into a black low volume 384 well microtiter plate (Greiner Bio-One, Frickenhausen, Germany), 2 μl of a solution of CDK9/CycT1 in aqueous assay buffer [50 mM Tris/HCl pH 8.0, 10 mM MgCl2, 1.0 mM dithiothreitol, 0.1 mM sodium ortho-vanadate, 0.01% (v/v) Nonidet-P40 (Sigma)] were added and the mixture was incubated for 15 min at 22° C. to allow pre-binding of the test compounds to the enzyme before the start of the kinase reaction. Then the kinase reaction was started by the addition of 3 μl of a solution of adenosine-tri-phosphate (ATP, 3.3 mM=>final conc. in the 5 μl assay volume is 2 mM) and substrate (1.67 μM=>final conc. in the 5 μl assay volume is 1 μM) in assay buffer and the resulting mixture was incubated for a reaction time of […] at 22° C. The concentration of CDK9/CycT1 was adjusted depending of the activity of the enzyme lot and was chosen appropriate to have the assay in the linear range, typical concentrations were in the range of 0.5 μg/mL. The reaction was stopped by the addition of 5 μl of a solution of TR-FRET detection reagents (0.2 μM streptavidine-XL665 [Cisbio Bioassays, Codolet, France] and 1 nM anti-RB(pSer807/pSer811)-antibody from BD Pharmingen [#558389] and 1.2 nM LANCE EU-W1024 labeled anti-mouse IgG antibody [Perkin-Elmer, product no. AD0077]) in an aqueous EDTA-solution (100 mM EDTA, 0.2% (w/v) bovine serum albumin in 100 mM HEPES/NaOH pH 7.0).
The resulting mixture was incubated 1 h at 22° C. to allow the formation of complex between the phosphorylated biotinylated peptide and the detection reagents. Subsequently the amount of phosphorylated substrate was evaluated by measurement of the resonance energy transfer from the Eu-chelate to the streptavidine-XL. Therefore, the fluorescence emissions at 620 nm and 665 nm after excitation at 350 nm was measured in a HTRF reader, e.g. a Rubystar (BMG Labtechnologies, Offenburg, Germany) or a Viewlux (Perkin-Elmer). The ratio of the emissions at 665 nm and at […] was taken as the measure for the amount of phosphorylated substrate. […]

The subject of the next assay is HeLa cells. The assay is described as follows: Proliferation assay, HeLa. Format: cell-based. The note with it: Homo sapiens, 96 h, 4 days, crystal violet, read-out: Inhibition of HeLa cell proliferation IC50. How it is done: Cultivated tumour cells (HeLa, human cervical tumour cells, ATCC CCL-2; NCI-H460, human non-small cell lung carcinoma cells, ATCC HTB-177; A2780, human ovarian carcinoma cells, ECACC #93112519; DU 145, hormone-independent human prostate carcinoma cells, ATCC HTB-81; HeLa-MaTu-ADR, multidrug-resistant human cervical carcinoma cells, EPO-GmbH Berlin; Caco-2, human colorectal carcinoma cells, ATCC HTB-37; B16F10, mouse melanoma cells, ATCC CRL-6475) were plated at a density of 5,000 cells/well (DU145, HeLa-MaTu-ADR), 3,000 cells/well (NCI-H460, HeLa), 2,500 cells/well (A2780), 1,500 cells/well (Caco-2), or 1,000 cells/well (B16F10) in a 96-well multititer plate in 200 μL of their respective growth medium supplemented 10% fetal calf serum. After 24 hours, the cells of one plate (zero-point plate) were stained with crystal violet (see below), while the medium of the other plates was replaced by fresh culture medium (200 μl), to which the test substances were added in various concentrations (0 μM, as well as in the range of 0.001-10 μM; the final concentration of the solvent dimethyl sulfoxide was 0.5%). The cells were incubated for 4 days in the presence of test substances. Cell proliferation was determined by staining the cells with crystal violet: the cells were fixed by adding 20 μl/measuring point of an 11% glutaric aldehyde solution for 15 minutes at room temperature. After three washing cycles of the fixed cells with water, the plates were dried at room temperature. The cells were stained by adding 100 μl/measuring point of a 0.1% crystal violet solution (pH 3.0). After three washing cycles of the stained cells with water, the plates were dried at room temperature. The dye was dissolved by adding 100 μl/measuring point of a 10% acetic acid solution. The extinction was determined by photometry at a wavelength of 595 nm. The change of cell number, in percent, was calculated by normalization of the measured values to the extinction values of the zero-point plate (=0%) and the extinction of the untreated (0 μm) cells (=100%). […]

Each structure is given as a SMILES string.

T1 sequence (P50750 whole entry): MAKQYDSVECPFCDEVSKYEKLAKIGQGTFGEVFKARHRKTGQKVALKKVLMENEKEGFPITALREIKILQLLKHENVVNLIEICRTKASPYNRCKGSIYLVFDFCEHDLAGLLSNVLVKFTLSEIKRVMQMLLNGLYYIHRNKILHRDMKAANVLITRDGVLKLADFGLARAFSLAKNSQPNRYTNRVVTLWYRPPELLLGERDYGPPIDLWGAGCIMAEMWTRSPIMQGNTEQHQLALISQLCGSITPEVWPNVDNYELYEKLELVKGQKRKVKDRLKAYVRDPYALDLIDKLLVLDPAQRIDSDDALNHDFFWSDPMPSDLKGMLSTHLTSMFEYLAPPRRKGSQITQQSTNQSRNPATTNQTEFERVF
T1 sequence (O60563 whole entry partner): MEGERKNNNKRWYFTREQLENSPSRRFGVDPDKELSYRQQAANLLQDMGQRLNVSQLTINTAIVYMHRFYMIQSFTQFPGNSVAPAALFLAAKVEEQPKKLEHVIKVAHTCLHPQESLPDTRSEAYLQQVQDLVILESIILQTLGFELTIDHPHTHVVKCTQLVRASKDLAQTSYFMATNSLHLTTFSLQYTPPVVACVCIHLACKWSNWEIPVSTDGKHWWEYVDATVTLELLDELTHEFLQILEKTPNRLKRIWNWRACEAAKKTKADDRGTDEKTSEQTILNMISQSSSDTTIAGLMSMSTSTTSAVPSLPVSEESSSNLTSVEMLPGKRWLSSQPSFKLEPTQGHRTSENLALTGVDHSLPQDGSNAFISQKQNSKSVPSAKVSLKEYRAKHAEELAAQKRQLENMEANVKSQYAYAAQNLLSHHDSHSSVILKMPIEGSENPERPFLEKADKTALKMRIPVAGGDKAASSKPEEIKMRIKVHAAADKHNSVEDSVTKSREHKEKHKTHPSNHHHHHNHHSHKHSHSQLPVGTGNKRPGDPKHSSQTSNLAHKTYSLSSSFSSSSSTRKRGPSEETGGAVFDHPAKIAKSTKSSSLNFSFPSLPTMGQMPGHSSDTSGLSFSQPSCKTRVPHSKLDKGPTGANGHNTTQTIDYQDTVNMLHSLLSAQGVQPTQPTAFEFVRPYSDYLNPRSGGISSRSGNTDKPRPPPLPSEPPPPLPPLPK

Consider `COc1cc(F)ccc1-c1cc(Nc2cc(CS(C)(=O)=O)ccn2)ncn1` [Example 1, 6-(4-Fluoro-2-methoxyphenyl)-N-{4-[(methylsulfonyl)methyl]pyridin-2-yl}pyrimidin-4-amine], for which the IC50 was 16 nM against CDK9/CycT1 and 101 nM in the assay on HeLa cells.
Turning to `COc1cc(F)ccc1-c1cc(Nc2cc(CS(C)(=O)=O)cc(C)n2)ncn1` [Example 2, 6-(4-Fluoro-2-methoxyphenyl)-N-{6-methyl-4-[(methylsulfonyl)methyl]pyridin-2-yl}pyrimidin-4-amine], the IC50 against CDK9/CycT1 stood at 2 nM; in the assay on HeLa cells, 76 nM.
In the case of `COc1cc(F)ccc1-c1cc(Nc2cc(CS(C)(=O)=O)cc(C(F)(F)F)n2)ncn1` [Example 3, 6-(4-Fluoro-2-methoxyphenyl)-N-{4-[(methylsulfonyl)methyl]-6-(trifluoromethyl)pyridin-2-yl}pyrimidin-4-amine], the IC50 was found to be 2 nM on CDK9/CycT1 and 24 nM with HeLa cells.
Regarding `COc1cc(F)ccc1-c1cc(Nc2cc(CS(C)(=O)=O)cc(F)n2)ncn1` [Example 4, 6-(4-Fluoro-2-methoxyphenyl)-N-{6-fluoro-4-[(methylsulfonyl)methyl]pyridin-2-yl}pyrimidin-4-amine], on CDK9/CycT1, the IC50 stood at 11 nM.
